Measured values: patent US20030040531A1, “Remedies for reperfusion injury containing integrin alphanubeta 3 antagonist” (priority 2000, published 2003)

What was measured:
platelet aggregation = test: inhibition of platelet aggregation, hamster; assay type: cell-based; conditions: Mesocricetus auratus, read-out: concentration (IC50) necessary for inhibition of platelet aggregation
Protocol: The platelets aggregation was measured by the Born's method (G. V. R. Born, Nature 194, 927 (1962)). Blood was collected through an injector containing a 3.8% sodium citrate solution from the aorta abdominalis (final concentration: 0.38%). Centrifugation was carried out at 900 rpm (about 80× g) for 10 min to collect platelet-rich plasma, and centrifugation was further carried out at 3,000 rpm (about 880× g) for 10 min to collect platelet-poor plasma, followed by the measurement of aggregation with an aggregometer. In this case, ADP (final concentration: 5 μM) was used as an aggregation inducer.

[1] = test system: hamster acute ischemia-reperfusion model; test: hamster acute ischemia-reperfusion model; assay type: in vivo; conditions: for reduction of myocardial infarct size (IS/AR): sodium salt mixed with arginine; for myocardial infarct size (IS/AR): average±SE, n=5, solvent administration group 49.3±7.1%
Protocol: A polyethylene tube was inserted into the carotid artery and the survical vein of Syrian male hamsters (10 to 13 weeks old) under pentobarbital anesthesia (60 mg/kg, i.p.). An electrocardiogram (I or II leading) was measured through a bioelectricity amplifier by leading from electrodes which had pierced the limbs. A polyethylene tube was inserted into the trachea, and artificial respiration was carried out with an artificial respirator (amount of ventilation: 10 ml/kg/stroke, number of times of ventilation: 70 strokes/min). The blood pressure was measured through a blood pressure amplifier, and the heart rate was measured with a heart rate unit using blood pressure as a trigger. The animals underwent thoracotomy, and the coronary, together with the myocardium, was then occluded using a suture with a needle. Ischemia for 90 min was followed by reperfusion for 2 hr to quantitatively determine myocardial infarct size.
A sodium salt of the compound represented by formula (IV) was mixed with a 2-fold equivalent of arginine, and the mixture was dissolved in a 5% glucose solution. The dose volume was 2 ml/kg+2 ml/kg/h (bolus +infusion). For a solvent administration group, a 0.64 mg/ml arginine/5% glucose solution was used. The medicament was continuously administered through an infusion pump for the period starting with one min before ischemia and ending with the completion of the experiment. After reperfusion for 2 hr, the animals were slaughtered by intraveneous injection of 1,000 U/kg of heparin and an excessive amount of pentobarbital, and the heart was then removed. After perfusion with a Ringer solution, blood was washed away from the heart, and the coronary artery was re-occluded. After the reocclusion, 0.4 ml of 0.1% Evans blue was injected through the aorta. The heart was rinsed with physiological saline and was then cut into about 1 mm slices. For each slice, the left ventricle (LV) was separated, and the weight of the left ventricle and the weight of the area-at-risk (AR) were measured. The area-at-risk was stained with a 50 mM Tris.HCl (pH 7.4, 37° C.) buffer containing 1.5% triphenyltetrazolium chloride heated at 37° C., and the weight of the infarct area (IS; infarct size) was measured. The measurement of the weight was carried out under a blind.

U937 cells = test: adhesion of human monocytes (U937 cells) to human activated vascular endothelial cells; assay type: cell-based; conditions: average on three wells±SD, control group 4522±1027
Protocol: The adhesion of human monocytes to vascular endothelial cells was measured with reference to the method of Murphy et al. (J. F. Murphy et al., Biochem. J. 304, 537 (1994)). Human funicular venoendothelial cells (4×10^4/well), which had been cultivated in a type-I collagen-coated flask containing a 199 medium containing an endothelial cell growth factor (15 μg/ml), heparin (5 U/ml), and 20% fetal calf serum, were cultivated using a type-I collagen-coated microplate in the above medium under 5% carbon dioxide at 37° C. for 2 days to prepare a layer of vascular endothelial cells. The layer of vascular endothelial cells was washed with PBS (−) and was then cultivated in PBS (−) containing 1 U/ml bovine thrombin, 5 mM CaCl2, and 5 mM MgCl2 for 5 min, followed -by washing with PBS(−) containing 10^-6 M D-phenylalanyl-L-prolyl-L-argininechloromethane and with PBS(−).
Next, U937 cells, which had been cultivated in an RPMI 1640 medium containing 10% fetal calf serum, were cultivated in the above medium containing 6 μM 2′,7′-bis(carboxyethyl)carboxyfluorescein tetraacetoxymethyl ester under 5% carbon dioxide at 37° C. for one hr, were washed with PBS (−), and were subjected to fluorescent labeling. The labeled U937 cells (2×10^5/well), the medicament, and 100 μl of an RPMI 1640 medium containing 1% fetal calf serum were added onto the layer of vascular endothelial cells, and an adhesion reaction was allowed to proceed under 5% carbon dioxide at 37° C. for 10 min. Next, nonadherent cells were removed, and 50 mM Tris HCl (pH 8.4) containing 0.1% sodium dodecylsulfate was added to elute the fluorescent dye, followed by fluorometry (excitation wavelength 485 nm, measurement wavelength 530 nm).

Compound: O=C(NCC(NS(=O)(=O)c1ccccc1)C(=O)O)c1ccc(N2CCC(NC3=NCCCN3)CC2)c(F)c1 (stereo in doubt) [formula (IV), (2S)-Benzenesulfonylamino-3-[3-fluoro-4-{4-(1,4,5,6-tetrahydropyrimidin-2-ylamino)-piperidin-1-yl}benzoylamino]propionic Acid]
- IC50 (platelet aggregation): 1900 nM
- reduction of myocardial infarct size (IS/AR) ([1]; group H 1.0 mg/kg+1.0 mg/kg/h (bolus+infusion), significant difference): 49.3%
- myocardial infarct size (IS/AR) ([1]; group H 1.0 mg/kg+1.0 mg/kg/h): 25.0±2.8%
- reduction of myocardial infarct size (IS/AR) ([1]; group L 0.33 mg/kg+0.33 mg/kg/h (bolus+infusion)): 30.9%
- myocardial infarct size (IS/AR) ([1]; group L 0.33 mg/kg+0.33 mg/kg/h): 34.0±5.0%
- fluorescence intensity (adhered U937 cells) (U937 cells; 10^-6 M): 3710+969 arbitrary unit
- fluorescence intensity (adhered U937 cells) (U937 cells; 10^-7 M): 4389+640 arbitrary unit
- fluorescence intensity (adhered U937 cells) (U937 cells; 10^−4 M): -34+74 arbitrary unit
- fluorescence intensity (adhered U937 cells) (U937 cells; 10^−5 M): 1968±187 arbitrary unit
